The results in this text go back to paper PMC3912631, “Bench to Bed Evidences for Pharmacokinetic and Pharmacodynamic Interactions Involving Oseltamivir and Chinese Medicine” (Evidence-based Complementary and Alternative Medicine : eCAM, 2014).

The data set can be described thus: Rat pharmacokinetics of OA and OC in plasma and urine after oral OA alone or with CMF1. The data set is classed as in vivo, Sprague-Dawley rats. The following applies: for Tmax / Cmax / CL renal / half-life: male, Sprague-Dawley, in vivo, po, 30 mg/kg; for Tmax / Cmax / CL renal / half-life / AUC0–8 h / AUC0–inf / Renal recovery: oral, bid for 5 days; for Tmax: mean ± SD, read-out: T max (converted); for Cmax: read-out: C max; for CL renal: read-out: CL renal; for half-life: read-out: t 1/2, λz; for Renal recovery: urine over 8 h. The method, then: The study was approved by the Animal Ethics Committee of The Chinese University of Hong Kong. Male Sprague-Dawley rats (230–250 g) were utilized and supplied by the Laboratory Animal Service Center at The Chinese University of Hong Kong. The rats were housed under standard conditions of temperature, humidity, and light and randomly divided into six groups with 10–12 rats in each group. […] The dose of 1.95 g/kg CMF1 is calculated based on the human dose recommended by the Chinese physicians and a doubled dose of CMF1 at […] is also used in the current study due to the potential large dosing range for Chinese medicine adopted in the practice. […]
For dosing, OA (4 mg/mL) was freshly prepared by dissolving it in water and orally given to rats by gavage, bid (twice daily) for 4 days (9:00am and 6:00pm for each day), and CMF1 was also freshly suspended in water and then orally given to rats 2 h later of OA dosing (11:00 am and 8:00 pm for each day).
For Groups of 1 to 3, a surgery for jugular vein cannulation was performed 1 h after CMF1 second dosing on day 4. A polyethylene catheter (0.50 mm ID, 1.00 mm OD, Portex Limited, Hythe, Kent, England) was cannulated into the right jugular vein under anesthesia. After surgery, the rat was placed in separated metabolic cage and allowed to recover and fasted overnight with free access to water. In the morning of day 5, blood samples (0.2 mL each) of the rats in the Groups 1–3 were collected via the catheter at 0, 15, 30, 60, 90, 120, 180, 240, 360, and 480 min after dosing of OA. After which, 0.2 mL of normal saline containing 20 units/mL of heparin was then injected into the catheter to flush the catheter. The collected blood samples were immediately placed in heparinized tubes containing dichlorvos (5 μL of 8 mg/mL dichlorvos in normal saline) for inhibition of carboxylesterase, followed by centrifugation to obtain the plasma and stored at −80°C. Urine samples were collected over 8 h postdose and combined with water used for rinsing the metabolic cage, further diluted to 200 mL, and then stored at −80°C until assay.
The rat/human plasma and urine samples were treated and analyzed by an LC/MS/MS system as previously described. Briefly, 200 μL plasma/urine samples was mixed with cephalexin hydrate (internal standard, IS) working solution (final 2 μg/mL) and acidified with 1 mL of 10% perchloric acid in water (if necessary, dilution with blank human urine was required for urine samples). After mixing and centrifugation, the supernatant was loaded in prewashed Oasis MCX cartridge (1 cc, 30 mg, Waters) and the cartridge was rinsed subsequently with 1% formic acid, water, and methanol followed by vacuum dried for 20 min. The analytes were then eluted with 1 mL of 1% ammonia in methanol. The eluting solvent was dried by a vacuum concentrator and the residue was reconstituted with 200 μL of 0.1% formic acid : methanol (1 : 1 v/v) prior to HPLC/MS/MS analysis using an ABI 2000 Q-Trap triple quadrupole mass spectrometer (Applied Biosystems) coupled with PE-200 series micropumps and autosampler (Perkin-Elmer). The chromatographic separation was achieved by using a Nova-Pak CN HP column (75 × 3.9 mm i.d., 4 μm particle size, Waters) and the HPLC solvent system consisted of methanol (A) and 0.1% formic acid in water (B), with 50% A (for plasma samples) or 60% A (for urine samples) at 1 mL/min. The temperatures of autosampler and the analytical column were set at 4°C and ambient, respectively, and the sample injection volume was 20 μL. Prior to the mass spectrometric system, 60% of the LC eluent was split off and only 40% of the eluent was introduced into the ESI source.
The plasma/urine OA and OC concentrations versus time profiles were analyzed using WinNonlin software standard edition version 2.1 (Pharsight Corporation). […] In human study, trough concentration (C trough) was defined as the minimum concentration obtained and was obtained at 12 h post-dose. […]

[1] abbreviates: Group 2: OA 30 mg/kg + CMF1 at 1.95 mg/kg.
[2] abbreviates: Group 3: OA 30 mg/kg + CMF1 at 3.90 mg/kg.

Read-outs that look alike come from different tables or passages of the source.

On to `CCC(CC)O[C@@H]1C=C(C(=O)O)C[C@H](N)[C@H]1NC(C)=O` [OC, oseltamivir carboxylate], for which, where the note is “dose-dependent”, the “decrease of C max, urinary recovery and AUC of OC and OC/OA AUC ratio in OA + CMF1 groups vs OA alone” value is listed as 26%-27%. Besides, under “Group 1: OA alone 30 mg/kg”, the Tmax was 1.75 h, the Cmax was determined as 1650 ± 400 ng/mL, the CL renal stood at 6.33 ± 1.27 mL/min and the half-life was found to be 2.53 ± 0.418 h. Further, under “Group 1: OA alone 30 mg/kg”, the “AUC0–8 h” value amounted to 418.81 ± 90.86 μg∗min/mL, the “AUC0–inf” value came out at 485.45 ± 113.03 μg∗min/mL and the Renal recovery is given as 35.26 ± 5.40 % of dose. Further, under setting [1], the Tmax is 1.77 h, the Cmax came out at 1360 ± 280 ng/mL, the CL renal was found to be 6.27 ± 1.76 mL/min and the half-life amounted to 2.44 ± 0.318 h. Besides, under setting [1], the “AUC0–8 h” value amounted to 344.13 ± 91.46 μg∗min/mL, the “AUC0–inf” value is 395.67 ± 109.41 μg∗min/mL and the Renal recovery was 29.73 ± 7.33 % of dose. Also, under setting [2], the Tmax was 2 h, the Cmax was determined as 1190 ± 230 ng/mL, the CL renal stood at 6.34 ± 0.69 mL/min and the half-life is 2.61 ± 0.28 h. In addition, under setting [2], the “AUC0–8 h” value is given as 304.84 ± 40.32 μg∗min/mL, the “AUC0–inf” value is 359.21 ± 41.30 μg∗min/mL and the Renal recovery was 25.94 ± 3.09 % of dose.
